Experimental findings from US10690666B2, “Methods and compositions for modulating TH-GM cell function” (National University of Singapore, priority 2014, dated 2020) are described below.

Assay [1] concerns synovial fibroblasts. Nature of the assay: Cytokine mRNA expression by synovial fibroblasts. In kind it is cell-based, mouse. From the text:
FIGS. 34A-34I depicts GM-CSF mediates proinflammatory cytokine expression by myeloid cells and synovial fibroblasts in arthritic mice. Synovial tissues were dissected from wild-type AIA mice and dissociated into single cell suspensions. (FIG. 34A) Flow cytometry plots depicting the fractionation into different populations based on differential expression of surface markers. (FIG. 34B) The mRNA expression of several proinflammatory cytokines in sorted CD45^+ TCRβ^+ (TCRβ^+ in short), CD45^+ TCRβ^−CD11c^−CD11b^+ (CD11b^+) and CD45^+ TCRβ^−CD11c^+ (CD11c^+) populations was measured by qPCR. The qPCR data were normalized to GAPDH. (FIG. 34C) The mRNA expression of IL-6, IL-1β and TNF-α in sorted Ly6C^hiLy6G^− and Ly6C^loLy6G^hi populations (gated on CD11b^+ cells). The qPCR data were normalized to GAPDH. (FIGS. 34D and 34E) The mRNA expression of IL-6 and IL-1β by BMDMs (FIG. 34D) and BMDCs (FIG. 34E) upon stimulation with 20 ng/ml GM-CSF for 1 h. The qPCR data were normalized to GAPDH. (FIGS. 34F and 34G) BMDMs (FIG. 34F) and BMDCs (FIG. 34G) were stimulated with GM-CSF at indicated concentrations (n=3 per group) for 18 h. The secretion of IL-6 in the culture supernatant was quantified by ELISA. […] The secretion of IL-1β in the culture supernatant was quantified by ELISA. […] The mRNA expression of IL-1β was measured by qPCR. […]

Assay [2] deals with neutrophils. Kind of assay: Neutrophil apoptosis, Annexin V and PI co-staining. It is filed as cell-based, mouse. The note with it: 20 ng/ml, 24 h. On the procedure:
FIGS. 33A-33C depicts GM-CSF enhances neutrophil transmigration and delay apoptosis in vitro. (FIG. 33A) Percentages of migrated neutrophils with or without GM-CSF as chemoattractant in transmigration assay at 3 h post start. (FIG. 33B) Microscopic images of CFSE-labeled neutrophils in the bottom of the lower chamber in transmigration assay. (FIG. 33C) Sorted neutrophils were cultured in vitro with or without GM-CSF (20 ng/ml) for 24 h. Neutrophils undergoing apoptosis were examined by Annexin V and propidium iodide (PI) co-staining. A representative flow cytometry of three repeats was shown. *p<0.05.
Neutrophils are recruited during inflammation, in which complex interactions between neutrophils and vascular endothelial cells direct neutrophil adhesion and transmigration from circulation to inflamed tissues (Kolaczkowska and Kubes, 2013). […] Effective neutrophil apoptosis is crucial for the resolution of inflammation. However, in synovitis, neutrophil apoptosis is delayed with a result of extended survival and persistent inflammation (Wright et al., 2014). […] To determine the critical role of neutrophils in AIA, \ neutralizing antibody (1A8) specific for Ly6G was used to deplete neutrophils in vivo. […] Thus, neutrophils accumulation mediated by TH-cell-derived GM-CSF are important for AIA development.

As to “GM-CSF: granulocyte macrophage colony-stimulating factor (ImmunoTools) given intraarticularly or added to cell cultures”, the “IL-1β mRNA expression in synovial fibroblasts” value in assay [1] (20 ng/ml, 1 h) was “increased IL-1β mRNA expression”. In addition, the “TNF-α expression in synovial fibroblasts” value in assay [1] (data not shown) is “not observed”. In assay [2], the neutrophil apoptosis entry was “profound efficacy in delaying neutrophil apoptosis”.
